Laboratory results as given in ChEMBL document CHEMBL1201862, “PubChem BioAssay data set” (2004).
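The compound was tested at five concentrations on cells cultured in 96-well plates, with a 48-hour exposure period. At the GI50, growth is halved.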 The source made the active and inactive calls. Cut-off read from the data, not from the text of the source: active = GI50 up to about 1.1 µM and inactive = higher.

Key:
Assay in all cases: DTP human tumour cell line panel, 48 h
CAKI-1 = system: CAKI-1
DU-145 = system: DU-145
HCC 2998 = system: HCC 2998
HCT-116 = system: HCT-116
HCT-15 = system: HCT-15
HOP-62 = system: HOP-62
KM12 = system: KM12
MOLT-4 = system: MOLT-4
NCI-H226 = system: NCI-H226
OVCAR-3 = system: OVCAR-3
PC-3 = system: PC-3
RXF 393 = system: RXF 393
SK-MEL-28 = system: SK-MEL-28
SK-MEL-5 = system: SK-MEL-5
SN12C = system: SN12C
SNB-19 = system: SNB-19
SW-620 = system: SW-620
NCI-H522 = system: NCI-H522
HOP-92 = system: HOP-92

| Structure (SMILES) | GI50 (CAKI-1) | GI50 (DU-145) | GI50 (HCC 2998) | GI50 (HCT-116) | GI50 (HCT-15) | GI50 (HOP-62) | GI50 (KM12) | GI50 (MOLT-4) | GI50 (NCI-H226) | GI50 (OVCAR-3) | GI50 (PC-3) | GI50 (RXF 393) | GI50 (SK-MEL-28) | GI50 (SK-MEL-5) | GI50 (SN12C) | GI50 (SNB-19) | GI50 (SW-620) | GI50 (NCI-H522) | GI50 (HOP-92) |
| --- | --- | --- | --- | --- | --- | --- | --- | --- | --- | --- | --- | --- | --- | --- | --- | --- | --- | --- | --- |
| CCCC(=O)n1[nH]c(=O)n(-c2ccc(Cl)cc2)c1=O | > 100 µM (inactive) | > 100 µM (inactive) | > 100 µM (inactive) | > 100 µM (inactive) | > 100 µM | > 100 µM (inactive) | > 100 µM (inactive) | > 100 µM (inactive) | > 100 µM (inactive) | > 100 µM (inactive) | > 100 µM (inactive) | > 100 µM (inactive) | > 100 µM (inactive) | > 100 µM (inactive) | > 100 µM (inactive) | > 100 µM (inactive) | > 100 µM (inactive) | – | – |
| CCOC(=O)CCc1cn2cc(Br)nc(OC)c2n1 | > 100 µM (inactive) | 51.6 µM (inactive) | > 100 µM (inactive) | 14.8 µM (inactive) | 6.5 µM | 53.2 µM (inactive) | 5.41 µM (inactive) | 13.3 µM (inactive) | > 100 µM (inactive) | 57.7 µM (inactive) | 50.9 µM (inactive) | 40.2 µM (inactive) | > 100 µM (inactive) | 7.85 µM (inactive) | 75.9 µM (inactive) | > 100 µM (inactive) | 16.2 µM (inactive) | 81.8 µM (inactive) | – |
| Cc1ncc([N+](=O)[O-])n1CCNS(=O)(=O)CCCn1ncnc1[N+](=O)[O-] | > 100 µM (inactive) | > 100 µM (inactive) | – | > 100 µM (inactive) | > 100 µM | > 100 µM (inactive) | > 100 µM (inactive) | > 100 µM (inactive) | > 100 µM (inactive) | > 100 µM (inactive) | > 100 µM (inactive) | > 100 µM (inactive) | > 100 µM (inactive) | > 100 µM (inactive) | > 100 µM (inactive) | – | > 100 µM (inactive) | > 100 µM (inactive) | > 100 µM (inactive) |
| O=C1C(Cl)=C(NCCN2CCOCC2)C(=O)c2c(O)ccc(O)c21 | 1.74 µM (inactive) | 1.71 µM (inactive) | 1.89 µM (inactive) | 1.55 µM (inactive) | 1.72 µM | 1.92 µM (inactive) | 3.23 µM (inactive) | 1.54 µM (inactive) | 9.95 µM (inactive) | 2.49 µM (inactive) | 2.2 µM (inactive) | – | 1.48 µM (inactive) | 1.09 µM (active) | 1.79 µM (inactive) | 1.81 µM (inactive) | 1.33 µM (inactive) | – | 2.69 µM (inactive) |
| C[N+]1(CCCl)CC[N+](C)(CCCl)CC1 (stereo unspecified) | > 100 µM (inactive) | > 100 µM (inactive) | – | > 100 µM (inactive) | > 100 µM | > 100 µM (inactive) | > 100 µM (inactive) | 83.6 µM (inactive) | > 100 µM (inactive) | > 100 µM (inactive) | > 100 µM (inactive) | > 100 µM (inactive) | > 100 µM (inactive) | > 100 µM (inactive) | > 100 µM (inactive) | > 100 µM (inactive) | > 100 µM (inactive) | – | – |
| O=C1C2CCCCC2C(=O)N1n1c(-c2ccccc2)n[nH]c1=O (stereo unspecified) | > 100 µM (inactive) | – | > 100 µM (inactive) | > 100 µM (inactive) | > 100 µM | > 100 µM (inactive) | > 100 µM (inactive) | > 100 µM (inactive) | > 100 µM (inactive) | > 100 µM (inactive) | > 100 µM (inactive) | > 100 µM (inactive) | – | > 100 µM (inactive) | > 100 µM (inactive) | > 100 µM (inactive) | > 100 µM (inactive) | > 100 µM (inactive) | > 100 µM (inactive) |
| CCOc1ccncc1[N+](=O)[O-] | > 100 µM (inactive) | > 100 µM (inactive) | – | > 100 µM (inactive) | > 100 µM | > 100 µM (inactive) | > 100 µM (inactive) | > 100 µM (inactive) | > 100 µM (inactive) | – | > 100 µM (inactive) | > 100 µM (inactive) | > 100 µM (inactive) | > 100 µM (inactive) | > 100 µM (inactive) | > 100 µM (inactive) | > 100 µM (inactive) | > 100 µM (inactive) | – |
| CN(c1ccccc1)S(=O)(=O)c1ccccc1[N+](=O)[O-] | > 100 µM (inactive) | > 100 µM (inactive) | > 100 µM (inactive) | 97.5 µM (inactive) | > 100 µM | > 100 µM (inactive) | > 100 µM (inactive) | 26.2 µM (inactive) | > 100 µM (inactive) | > 100 µM (inactive) | 57.9 µM (inactive) | > 100 µM (inactive) | > 100 µM (inactive) | > 10 µM (inactive) | > 100 µM (inactive) | > 100 µM (inactive) | > 100 µM (inactive) | 64.3 µM (inactive) | – |
